Experiment: Osmotic pressure of saturated solutions by vapor pressure osmometer
Assay type: physicochemical
Conditions: saturated solution in water at 37° C.; Model 320B Vapor Pressure Osmometer
Protocol: The osmagent is initially present in excess and it can be any physical form such as particle, crystal, pellet, tablet, strip, film or granule. […] In the table, the osmotic pressure π, is in atmospheres, ATM. The osmotic pressure is measured in a commercially available osmometer that measures the vapor pressure difference between pure water and the solution to be analyzed, and according to standard thermodynamic principles, the vapor pressure ratio is converted into osmotic pressure difference. […] The osmometer used for the present measurements is identified as Model 320B, Vapor Pressure Osmometer, manufactured by Hewlett Packard Co., Avondale, Pa.

Compound	OSMOTIC PRESSURE [ATM]
O=C(CO)[C@@H](O)[C@H](O)[C@H](O)CO [Fructose]	355
OC[C@@H](O)[C@@H](O)[C@H](O)[C@H](O)CO [Mannitol]	38
[Cl-].[K+] [Potassium Chloride]	245
O=S(=O)([O-])[O-].[K+].[K+] [Potassium Sulfate]	39
[Cl-].[Na+] [Sodium Chloride]	356
O=P([O-])([O-])O.[Na+].[Na+] [Sodium Phosphate Dibasic Anhydrous]	29
O.O.O.O.O.O.O.O=P([O-])([O-])O.[Na+].[Na+] [Sodium Phosphate Dibasic.7H2O]	31
O.O.O.O.O.O.O.O.O.O.O.O.O=P([O-])([O-])O.[Na+].[Na+] [Sodium Phosphate Dibasic.12H2O]	31
O.O.O.O.O.O.O.O.O.O.O.O.O=P([O-])([O-])[O-].[Na+].[Na+].[Na+] [Sodium Phosphate Tribasic.12H2O]	36
Sodium Phosphate Monobasic.H2O	28
